# Settings: buffer; pH 7.4; 200.0 µM
row,SMILES,solubility kinetic [µg/mL]
1,Cl.NCCN1C(=O)S/C(=C\c2ccc3c(c2)OCO3)C1=O,> 49.3
2,CC(C)NC(=O)CNc1ccc(C(F)(F)F)cc1[N+](=O)[O-],13.4
3,CCOc1ncccc1C(=O)Nc1ccc(F)c(F)c1,6.7
4,Cc1nn(C)c(=O)n1-c1ccccc1,> 28.4
5,CCOC(=O)c1cc2c(=O)c3ccccc3oc2nc1C,2.1
6,CCC/C(O)=C1\C(=O)CC(C)(C)CC1=Nc1ccc(OC)cc1,41.6
7,Cl.O=C(CCN1CCOCC1)NNC(=O)c1ccc(Cl)c([N+](=O)[O-])c1,> 59
8,COC(=O)c1ccc(NC(=O)c2cccc(C)c2)cc1,5.4
9,Cc1c(C(=O)N2CCC(C)CC2)cccc1[N+](=O)[O-],> 39.3
10,CCOC(=O)c1[nH]c(C)c(C(=O)OCc2ccc(C)cc2)c1C,1.1
11,Cc1ccc(NC(=O)C2COc3ccccc3O2)cc1 (stereo not given),13.3
12,Cc1nc(SC(C)C(=O)NC2CCCCC2C)c2c(C)c(C)sc2n1 (stereo not given),< 0.3
13,N#CC1(NC(=O)CSc2nc3ccccc3o2)CCCCC1,> 47.3
14,CCC(C)NC(=O)C1CC(=O)N(CCc2ccc(F)cc2)C1 (stereo not given),> 46
15,CC(NC(=O)COc1cccnc1[N+](=O)[O-])c1ccc(Cl)cc1 (stereo not given),> 50.4
16,COc1cc(CN2CCCCCC2)cc([N+](=O)[O-])c1O,35.6
17,COc1ccc(Cl)cc1Nc1nc(-c2cccnc2)cs1,< 0.2
18,CCn1c(=O)c2c(nc3n2CCCN3Cc2ccccc2)n(C)c1=O,13.7
19,Cc1cccc(CC(=O)NCCN2CCCCC2)c1,32.5
20,O=C(NCc1cccnc1)/C(=C/c1ccc([N+](=O)[O-])cc1)NC(=O)c1ccccc1,10.2
21,CC(=O)Nc1nnc(SCC(=O)NC2CC2)s1,> 40.9
22,COc1ccccc1OCCn1c(C)c(C=O)c2ccccc21,1
23,C[C@@H]1CN(Cc2nc(-c3cccs3)no2)C[C@H](C)O1,38
24,CC1CCC(NC(=O)c2cc3ccccc3cc2O)CC1 (stereo not given),4.3

row,SMILES,solubility kinetic [µg/mL]
1,O=c1c2ccccc2ncn1CCCCOc1ccccc1F,37.3
2,O=C(CN1CCc2ccccc21)NC(=O)NC1CCCCC1,34.8
3,CCn1c(C)nc2cc(C(=O)NNC(=O)CN(C)S(=O)(=O)c3ccc(NC(C)=O)cc3)ccc21,> 73
4,COc1ccc(S(=O)(=O)NC(C)C(=O)NC2CC2)cc1C (stereo not given),> 46.9
5,O=C(NCc1ccco1)C1CCCN1C(=O)Nc1ccccc1 (stereo not given),43.5
6,Cc1cc(C)c(C#N)c(N2CCN(c3ccccc3F)CC2)n1,3.8
7,COc1ccccc1CCC(=O)Oc1ccccc1C#N,16.6
8,O=C(Cn1cnc([N+](=O)[O-])c1)Nc1ccccc1C(F)(F)F,39
9,CCN(CC)CCNC(=O)c1cc2cc3ccc(OC)cc3nc2o1,45.9
10,O=C(CN1C(=O)c2ccccc2S1(=O)=O)N1CCCCC1,> 46.3
11,CC(C)(C)N1C(=O)c2ccc(C(=O)Nc3cc(C(=O)O)cc(C(=O)O)c3)cc2C1=O,51.5
12,CCc1cc(C(=O)NCC(C)(C)N2CCOCC2)sc1C,> 46.6
13,Cn1cc2cc(NC(N)=S)ccc2n1,> 30.9
14,CCOC(=O)c1sc(CS(=O)(=O)c2ccc(Cl)cc2)nc1C,6.1
15,COc1ccc(/C=C/C(=O)NCc2ccccn2)cc1OC,> 44.8
16,CC(=O)c1cccc(NC(=O)c2cccc(NC(=O)c3ccco3)c2)c1,< 0.4
17,c1ccc(-c2nccc(-c3ccc4c(c3)OCO4)n2)cc1,< 0.3
18,COc1ccc(C(=O)COC(=O)c2c(C)noc2C)cc1Cl,2.9
19,Cc1sc2ncnc(N3CCC(C(=O)Nc4ccc(OC(F)F)c(Cl)c4)CC3)c2c1C,5.7
20,CC(=O)Nc1nnc(S(N)(=O)=O)s1,> 33.3
21,COc1ccc(NC(=O)CN(C)CC(=O)N2CC(=O)Nc3ccccc32)cc1,> 57.4
22,CCOc1cc2c(C#N)c(N3CCNCC3)nc(N)c2c(N)n1,1.3
23,Cc1nc2c3cc(Cl)ccc3n(CCN3CCOCC3)c2s1,7.7
24,CC(CCN1CCOCC1)c1ccccc1 (stereo not given),19.3

row,SMILES,solubility kinetic [µg/mL]
1,CN(C)c1ccc(C(=O)N=c2sccn2C)cc1[N+](=O)[O-],1.4
2,c1ccc(CO/N=C(\c2ccc(C3CC3)nc2)C2CC2)cc1,1.9
3,COc1ccc(Cc2nc(-c3cccnc3)no2)cc1OC,41
4,CC(=O)/C=C\c1ccc(OC(=O)c2cccnc2)cc1,39.6
5,O=C(Nc1ccccc1)Nc1ccc(C(F)(F)F)cn1,0.2
6,COc1ccccc1-c1cc(C(=O)NC2CCCC2)no1,6.1
7,CSCC[C@H](NC(=O)Nc1ccc(OC(F)(F)F)cc1)C(=O)O,> 52.8
8,Cc1ccc(CNc2cccnc2)cc1,> 29.7
9,CSCCn1c(C(C)(C)C)cc(C(=O)O)c1C,31.3
10,CN(C)NC(=S)NC1CC2CCC1C2 (stereo not given),> 32
11,O=C(c1cc2cc([N+](=O)[O-])ccc2oc1=O)N1CCN(C2CCCCC2)CC1,> 57.8
12,COc1ccc(NC(=O)c2cc(-c3ccccn3)nc3ccccc23)c(OC)c1,3.8
13,Cc1ccc(OCC(=O)NCc2ccco2)c([N+](=O)[O-])n1,37.3
14,Cc1nc(NC(=O)CSc2nnc(C3CC3)n2N)c(Cl)cc1Cl,> 56
15,Cc1ccnc(NS(=O)(=O)c2ccc3ccccc3c2)n1,28.1
16,O=C(CCNC(=O)c1ccc(Cl)cc1)Nc1nc2ccccc2[nH]1,2.3
17,CN1C(=O)NC(c2ccc(Cl)cc2)C2=C1CC(C)(C)CC2=O (stereo not given),> 47.8
18,CC(=O)CN1C(=O)NC(c2ccccc2)(c2ccccc2)C1=O,33.9
19,CCOCCn1c(N2CCCC2)nc2c1c(=O)[nH]c(=O)n2C,45.2
20,O=C(Nc1ccc(Br)cc1)c1cnc[nH]1,> 39.9
21,Cc1ccc(O)c(C(=O)c2cnc(/N=C(\N)N(C)C)nc2)c1,41.1
22,O=C(Nc1ccc(F)cc1F)c1ccc(S(=O)(=O)NCc2ccco2)cc1,10.5
23,Oc1ccc(C(=S)N2CCCC2)cc1,> 31.1
24,O=C(Nc1ccc(Cl)cc1)C1CCN(C(=O)c2ccco2)CC1,> 49.9

row,SMILES,solubility kinetic [µg/mL]
1,CCN1C(=O)/C(=C/N2CCc3ccccc3C2)SC1=S,< 0.3
2,COc1ccccc1NC(=S)NCc1ccc(Cl)cc1,33
3,Fc1ccc(CNCCc2c[nH]c3ccccc23)cc1,> 40.2
4,N#Cc1c(C(F)(F)F)cc(=O)[nH]c1SCC(=O)O,> 41.7
5,CCOC(=O)Cn1nc(C)c(NC(=O)COc2ccc(OC)cc2)c1C,> 54.2
6,Fc1ccccc1CSCc1nc2ccccc2[nH]1,36.6
7,Cc1cccc(C)c1NC(=O)CN(C)C(=O)C1CC1C (stereo not given),> 41.2
8,O=[N+]([O-])c1ccc2c(c1)nc(CO)n2Cc1ccccc1,9.3
9,CC(C)Cc1nnc(NC(=O)CCC(=O)NC2CC2)s1,> 44.5
10,CCNC(=S)Nc1ccc(Cc2nc3ccccc3[nH]2)cc1,36
11,Cc1cccc(OCC(=O)NCCNC(=O)c2ccncc2)c1,42.3
12,CN1C(=O)/C(=C/C=C2\SCCN2C)OC1=S,4.4
13,COc1ccc(S(=O)(=O)Nc2cccc(F)c2)cc1C,> 44.3
14,Cc1nccn1CC1CCc2c(c3ccccc3n2C)C1=O.Cl (stereo not given),47.7
15,CCC(=O)Nc1c(-c2ccc(C)cc2)nc2ccc(C)cn12,30.4
16,Cc1cc(F)ccc1NS(=O)(=O)c1cccc2nsnc12,44.2
17,O=C(Cc1ccccc1F)OCN1C(=O)c2ccccc2C1=O,47
18,O=C(COc1ccccc1F)N1CCCc2ccccc21,> 42.8
19,COc1ccc(CNc2nc(C)cc(C)c2C#N)cc1,0.6
20,Cc1cc(C)c2c(CC(=O)NN(C)C)coc2c1,> 36.9
21,CCCOc1cccc(C(=O)NCCNC(=O)c2ccccn2)c1,> 49.1
22,COc1ccc(N2C(=O)CS/C2=N\C(=S)Nc2ccccc2)cc1,1.4
23,COc1ccc(NC(=O)c2ccc(Oc3ncccn3)cc2)cc1,10.6
24,Cc1ccc(S(=O)(=O)N(C)CC(=O)Nc2cccnc2)cc1,41.5

row,SMILES,solubility kinetic [µg/mL]
1,Cc1ccc(NC(=O)COC(=O)Cn2cnc3ccccc32)c(C)c1,42.4
2,Cc1ccc(/C=N/NC(=O)c2ccc3nc[nH]c3c2)o1,> 40.2
3,O=C1CNC(c2ccccc2Cl)c2cc(Br)ccc2N1 (stereo not given),0.8
4,O=C(COC(=O)CCc1c[nH]c2ccccc12)NCc1ccc2c(c1)OCO2,43
5,COc1ccc(Cl)cc1C(=O)Nc1nc2ccccc2[nH]1,1.2
6,NC(=O)c1ccccc1NCC(=O)c1ccc(F)cc1,> 40.8
7,CN(C)S(=O)(=O)c1cccc(COC(=O)c2cnccn2)c1,41.7
8,Cc1ccc(C(=O)N2CCN(c3ccccn3)CC2)cc1[N+](=O)[O-],44.8
9,CCCCN(C(=O)COC(=O)c1ccc(C)s1)c1c(N)n(CCC)c(=O)[nH]c1=O,17.9
10,Cc1ccc(NC(=O)CN2C(=O)C3CC=C(Cl)CC3C2=O)cc1 (stereo not given),> 49.9
11,CCC(=O)N(CCC1(C(C)C)CCOC(C)(C)C1)C(C)c1cccs1 (stereo not given),42.2
12,COc1ccc(OC)c2sc(N3CCc4ccccc4C3)nc12,0.6
13,COCc1c(C(=O)OCC(=O)NCc2ccco2)oc2ccccc12,48
14,CCOc1cccc(CNc2nnnn2C)c1,> 35
15,COc1ccc(CC(=O)O/N=C(\N)c2ccccc2)cc1OC,37.5
16,Cn1ccnc1C(=O)c1ccc(S(=O)(=O)N2CCCC2)cc1,> 47.9
17,CCOc1ccc(NC(=S)N2c3ccccc3CC2C)cc1 (stereo not given),4.4
18,O=C(COc1ccc(F)cc1)N1CCCCCCC1,38.8
19,O=C(NCc1ccncc1)C(=O)NCc1ccncc1,> 40.5
20,O=C(Cn1cccc1C(=O)c1ccccc1)NCc1ccc(Cl)cc1,1.1
21,O=C(OCC(=O)N1CCCC1=O)c1cc2ccccc2o1,> 43.1
22,CN(C1(C)CCS(=O)(=O)C1)S(=O)(=O)c1ccc(F)cc1 (stereo not given),> 48.2
23,O=C1CSC(=S)N1c1ccc(Cl)c(Cl)c1,< 0.6
24,COC(=O)c1ccccc1NC(=O)c1onc(C)c1Cl,< 0.3

# Source: PubChem BioAssay AID1996
